Where two headings read alike, the source gives them in different places.
Key:
BRD4 = BRD4 (Homo sapiens (Human), UniProt O60885); test: BRD4 DSF thermal shift (ΔTm); type: binding; conditions: for DSF ΔTm: Table 1; for BRD4 DSF (ΔTm): Table 2
UKE1 cells = test: Growth inhibition GI50, UKE1 cells; type: cell-based
MM1.S cells = test: Antiproliferative activity, MM1.S cells; type: cell-based; conditions: Homo sapiens; for GI50: Table 2, read-out: GI50 (MM1S)
Method: Cellular activity of promising compounds is assessed using MM.1S and MV4-11 AML cells using c-Myc levels as biomarker (6-12 hr treatment) and antiproliferative activity (48-72 hr treatment) as described (Ciceri et al., Dual kinase-bromodomain inhibitors for rationally designed polypharmacology. Nat Chem Biol 2014).

[1] = UKE1, Table 2, read-out: GI50 (UKE1)

BRD4 DSF (ΔTm) (BRD4) [°C] | GI50 (MM1.S cells) [nM] | Compound | GI50 (UKE1 cells; [1]) [nM] | other results
12.3 |  | Cc1ccc(Nc2nc(Nc3ccc(C4CCN(C)CC4)c(F)c3)ncc2C)cc1NS(=O)(=O)C(C)(C)C [PN2-173, N-(5-((2-((3-Fluoro-4-(1-methylpiperidin-4-yl)phenyl)amino)-5-methylpyrimidin-4-yl)amino)-2-methylphenyl)-2-methylpropane-2-sulfonamide] | 463 | 
12.6 |  | Cc1ccc(Nc2nc(Nc3cc(F)c(C4CCN(C)CC4)cn3)ncc2C)cc1NS(=O)(=O)C(C)(C)C [PN2-175, N-(5-((2-((4-Fluoro-5-(1-methylpiperidin-4-yl)pyridin-2-yl)amino)-5-methylpyrimidin-4-yl)amino)-2-methylphenyl)-2-methylpropane-2-sulfonamide] | 220 | 
13.3 |  | Cc1ccc(Nc2nc(Nc3cc(F)c(C4CCN(C)CC4)c(F)c3)ncc2C)cc1NS(=O)(=O)C(C)(C)C [PN2-174, N-(5-((2-((3,5-Difluoro-4-(1-methylpiperidin-4-yl)phenyl)amino)-5-methylpyrimidin-4-yl)amino)-2-methylphenyl)-2-methylpropane-2-sulfonamide] | 194 | 
15.2 | 93 | Cc1cnc(Nc2cc(F)c(C3CCN(C)CC3)c(F)c2)nc1Nc1ccc(Cl)c(NS(=O)(=O)C(C)(C)C)c1 [PN2-122, N-(2-Chloro-5-((2-((3,5-difluoro-4-(1-methylpiperidin-4-yl)phenyl)amino)-5-methylpyrimidin-4-yl)amino)phenyl)-2-methylpropane-2-sulfonamide] |  | 
12.7 | 240 | CN1CCC(c2ccc(Nc3ncc(C(F)F)c(Nc4ccc(Cl)c(NS(=O)(=O)C(C)(C)C)c4)n3)cc2F)CC1 [PN1-117, N-(2-Chloro-5-((5-(difluoromethyl)-2-((3-fluoro-4-(1-methylpiperidin-4-yl)phenyl)amino)pyrimidin-4-yl)amino)phenyl)-2-methylpropane-2-sulfonamide] |  | 
7.6 | 890 | CN1CCC(c2ccc(Nc3ncc(C#N)c(Nc4ccc(Cl)c(NS(=O)(=O)C(C)(C)C)c4)n3)cc2F)CC1 [PN1-138, N-(2-Chloro-5-((5-cyano-2-((3-fluoro-4-(1-methylpiperidin-4-yl)phenyl)amino)pyrimidin-4-yl)amino)phenyl)-2-methylpropane-2-sulfonamide] |  | 
12.8 | 360 | CN1CCC(c2ccc(Nc3ncc([N+](=O)[O-])c(Nc4ccc(Cl)c(NS(=O)(=O)C(C)(C)C)c4)n3)cc2F)CC1 [PN1-132, N-(2-Chloro-5-((2-((3-fluoro-4-(1-methylpiperidin-4-yl)phenyl)amino)-5-nitropyrimidin-4-yl)amino)phenyl)-2-methylpropane-2-sulfonamide] |  | 
6.7 | 1600 | Cc1cnc(Nc2ccc(C3CCN(C)CC3)c(F)c2)cc1Nc1cccc(NS(=O)(=O)C(C)(C)C)c1 [SY3-039, N-(3-((2-((3-Fluoro-4-(1-methylpiperidin-4-yl)phenyl)amino)-5-methylpyridin-4-yl)amino)phenyl)-2-methylpropane-2-sulfonamide] |  | 
11.4 | 320 | Cc1cnc(Nc2cc(F)c(C3CCN(C)CC3)cc2F)nc1Nc1ccc(Cl)c(NS(=O)(=O)C(C)(C)C)c1 [PN1-102, N-(2-Chloro-5-((2-((2,5-difluoro-4-(1-methylpiperidin-4-yl)phenyl)amino)-5-methylpyrimidin-4-yl)amino)phenyl)-2-methylpropane-2-sulfonamide] |  | 
13.7 | 580 | CN1CCC(c2ccc(Nc3ncc(C(N)=O)c(Nc4ccc(Cl)c(NS(=O)(=O)C(C)(C)C)c4)n3)cc2F)CC1 [PN1-134, 4-((4-Chloro-3-((1,1-dimethylethyl)sulfonamido)phenyl)amino)-2-((3-fluoro-4-(1-methylpiperidin-4-yl)phenyl)amino)pyrimidine-5-carboxamide] |  | 
13.4 | 80 | Cc1cnc(Nc2cc(F)c(C3CCN(C)CC3)c(F)c2)nc1Nc1cccc(NS(=O)(=O)C(C)(C)C)c1 [PN2-124, N-(3-((2-((3,5-Difluoro-4-(1-methylpiperidin-4-yl)phenyl)amino)-5-methylpyrimidin-4-yl)amino)phenyl)-2-methylpropane-2-sulfonamide] |  | 
7.1 | 220 | CN1CCC(c2ccc(Nc3ncc(-c4cnn(C)c4)c(Nc4ccc(Cl)c(NS(=O)(=O)C(C)(C)C)c4)n3)cc2F)CC1 [PN1-145, N-(2-Chloro-5-((2-((3-fluoro-4-(1-methylpiperidin-4-yl)phenyl)amino)-5-(1-methyl-1H-pyrazol-4-yl)pyrimidin-4-yl)amino)phenyl)-2-methylpropane-2-sulfonamide] |  | 
13.0 | 109 | Cc1cnc(Nc2ccc(C3CCN(C)CC3)c(F)n2)nc1Nc1ccc(Cl)c(NS(=O)(=O)C(C)(C)C)c1 [PN2-102, N-(2-Chloro-5-((2-((6-fluoro-5-(1-methylpiperidin-4-yl)pyridin-2-yl)amino)-5-methylpyrimidin-4-yl)amino)phenyl)-2-methylpropane-2-sulfonamide] |  | 

Second part, the compound before the results:

Compound | BRD4 DSF (ΔTm) (BRD4) [°C] | GI50 (MM1.S cells) [nM] | GI50 (UKE1 cells; [1]) [nM] | other results
Cc1cnc(Nc2ccc(C3CCN(C)CC3)c(F)c2)nc1Nc1cccc(NS(=O)(=O)C(C)(C)C)c1 [drawing 13] |  |  |  | DSF ΔTm (BRD4): 12.3 °C; GI50 (UKE1 cells; UKE1, Table 1 comments, read-out: GI50 (UKE1 cells)): 110 nM
Cc1cnc(Nc2ccc(C3CCN(C)CC3)c(F)c2)nc1Nc1cc(F)cc(NS(=O)(=O)C(C)(C)C)c1 [PN3-052, N-(3-Fluoro-5-((2-((3-fluoro-4-(1-methylpiperidin-4-yl)phenyl)amino)-5-methylpyrimidin-4-yl)amino)phenyl)-2-methylpropane-2-sulfonamide] |  |  | 270 | 
Cc1cnc(Nc2cc(F)c(C3CCN(C)CC3)cn2)nc1Nc1cccc(NS(=O)(=O)C(C)(C)C)n1 [MA11-038, N-(6-((2-((4-fluoro-5-(1-methylpiperidin-4-yl)pyridin-2-yl)amino)-5-methylpyrimidin-4-yl)amino)pyridin-2-yl)-2-methylpropane-2-sulfonamide] |  |  | 5600 | 
Cc1cnc(Nc2cc(F)c(C3CCN(C)CC3)c(F)c2)nc1Nc1cc(Cl)cc(NS(=O)(=O)C(C)(C)C)c1 [PN3-075, N-(3-Chloro-5-((2-((3,5-difluoro-4-(1-methylpiperidin-4-yl)phenyl)amino)-5-methylpyrimidin-4-yl)amino)phenyl)-2-methylpropane-2-sulfonamide] |  |  | 556 | 
Cc1cnc(Nc2cc(F)c(C3CCN(C)CC3)c(F)c2)nc1Nc1cccc(NS(=O)(=O)C(C)(C)C)n1 [MA11-035, N-(6-((2-((3,5-difluoro-4-(1-methylpiperidin-4-yl)phenyl)amino)-5-methylpyrimidin-4-yl)amino)pyridin-2-yl)-2-methylpropane-2-sulfonamide] | 5.1 |  | 761 | 
Cc1cnc(Nc2cc(F)c(C3CCN(C)CC3)cn2)nc1Nc1cc(Cl)cc(NS(=O)(=O)C(C)(C)C)c1 [PN3-074, N-(3-Chloro-5-((2-((4-fluoro-5-(1-methylpiperidin-4-yl)pyridin-2-yl)amino)-5-methylpyrimidin-4-yl)amino)phenyl)-2-methylpropane-2-sulfonamide] |  |  | 937 | 
Cc1cnc(Nc2cc(F)c(C3CCN(C)CC3)c(F)c2)nc1Nc1cc(F)cc(NS(=O)(=O)C(C)(C)C)c1 [PN3-053, N-(3-((2-((3,5-Difluoro-4-(1-methylpiperidin-4-yl)phenyl)amino)-5-methylpyrimidin-4-yl)amino)-5-fluorophenyl)-2-methylpropane-2-sulfonamide] |  |  | 185 | 
Cc1cnc(Nc2ccc(C3CCN(C)CC3)c(F)c2)cc1Nc1ccc2c(c1)N(S(=O)(=O)C(C)(C)C)CC2 [MA9-064, N4-(1-(Tert-butylsulfonyl)indolin-6-yl)-N2-(3-fluoro-4-(1-methylpiperidin-4-yl)phenyl)-5-methylpyridine-2,4-diamine] | 8.2 | 1600 |  | 
Cc1cnc(Nc2ccc(C3CCN(C)CC3)c(F)c2)nc1Nc1cnc(Cl)c(NS(=O)(=O)C(C)(C)C)c1 [MA11-016, N-(2-chloro-5-((2-((3-fluoro-4-(1-methylpiperidin-4-yl)phenyl)amino)-5-methylpyrimidin-4-yl)amino)pyridin-3-yl)-2-methylpropane-2-sulfonamide] | 14.8 |  | 110 | 
Cc1cnc(Nc2ccc(C3=CCN(C)CC3)c(F)c2)nc1Nc1ccc(Cl)c(NS(=O)(=O)C(C)(C)C)c1 [PN1-101, N-(2-Chloro-5-((2-((3-fluoro-4-(1-methyl-1,2,3,6-tetrahydropyridin-4-yl)phenyl)amino)-5-methylpyrimidin-4-yl)amino)phenyl)-2-methylpropane-2-sulfonamide] | 13.5 | 100 |  | 
Cc1cnc(Nc2cc(F)cc(N3CCN(C)CC3)c2)nc1Nc1ccc(Cl)c(NS(=O)(=O)C(C)(C)C)c1 [drawing 10] |  |  |  | DSF ΔTm (BRD4): 11.1 °C; IC50 (MM1.S cells; Table 1 comments): 160 nM
Cc1cnc(Nc2ccc(C3CCN(C)CC3)c(F)c2)nc1Nc1cc(Cl)cc(NS(=O)(=O)C(C)(C)C)c1 [PN3-076, N-(3-Chloro-5-((2-((3-fluoro-4-(1-methylpiperidin-4-yl)phenyl)amino)-5-methylpyrimidin-4-yl)amino)phenyl)-2-methylpropane-2-sulfonamide] |  |  | 1100 | 
Cc1cnc(Nc2cc(F)c(C3CCN(C)CC3)cn2)nc1Nc1cc(F)cc(NS(=O)(=O)C(C)(C)C)c1 [PN3-054, N-(3-Fluoro-5-((2-((4-fluoro-5-(1-methylpiperidin-4-yl)pyridin-2-yl)amino)-5-methylpyrimidin-4-yl)amino)phenyl)-2-methylpropane-2-sulfonamide] |  |  | 449 | 
Cc1cnc(Nc2ccc(C3CCN(C)CC3)c(F)c2)nc1Nc1cccc(NS(=O)(=O)C(C)(C)C)n1 [MA11-032, N-(6-((2-((3-fluoro-4-(1-methylpiperidin-4-yl)phenyl)amino)-5-methylpyrimidin-4-yl)amino)pyridin-2-yl)-2-methylpropane-2-sulfonamide] |  |  | 385 | 
